ChEMBL document CHEMBL5724914, “Linking interpersonal differences in gut microbiota composition and drug biotransformation activity” (2024)

Assays:
[1] = human gut metagenome, 24 h, 2 µM
[2] = (§1) The drug is tested on WLS-086 corresponding to human gut metagenome with ENA study accession number: PRJEB37062 and ENA sample accession number: ERS12561752 for biotransformation under anaerobic condition. The drug concentrations were measured over 9 timepoints collected between 0 and 24 hours of incubation by liquid-chromatography-coupled mass spectrometry (LC–MS); settings: 2 µM
[3] = human gut metagenome, 24 h, 2 µM; remark: listed apart in the source
[4] = as §1, with “Z-018” for “WLS-086”, “pig” for “human”, “ERS12561817” for “ERS12561752”; settings: 2 µM
[5] = as §1, with “WLS-073” for “WLS-086”, “ERS12561749” for “ERS12561752”; settings: 2 µM
[6] = as §1, with “WLS-310” for “WLS-086”, “ERS12561785” for “ERS12561752”; settings: 2 µM
[7] = human gut metagenome, 24 h, 2 µM; remark: listed apart in the source
[8] = human gut metagenome, 24 h, 2 µM; remark: listed apart in the source
[9] = as §1, with “Z-005” for “WLS-086”, “to” for “to human gut”, “ERS12561805” for “ERS12561752”; settings: 2 µM
[10] = human gut metagenome, 24 h, 2 µM; remark: listed apart in the source
[11] = human gut metagenome, 24 h, 2 µM; remark: listed apart in the source
[12] = human gut metagenome, 24 h, 2 µM; remark: listed apart in the source
[13] = as §1, with “WLS-069” for “WLS-086”, “ERS12561748” for “ERS12561752”; settings: 2 µM
[14] = as §1, with “Z-002” for “WLS-086”, “rabbit” for “human”, “ERS12561802” for “ERS12561752”; settings: 2 µM
[15] = as §1, with “Z-022” for “WLS-086”, “mouse” for “human”, “ERS12561821” for “ERS12561752”; settings: 2 µM
[16] = as §1, with “Z-003” for “WLS-086”, “pig” for “human”, “ERS12561803” for “ERS12561752”; settings: 2 µM
[17] = human gut metagenome, 24 h, 2 µM; remark: listed apart in the source
[18] = as §1, with “Z-025” for “WLS-086”, “rabbit” for “human”, “ERS12561824” for “ERS12561752”; settings: 2 µM
[19] = human gut metagenome, 24 h, 2 µM; remark: listed apart in the source
[20] = as §1, with “Z-028” for “WLS-086”, “mouse” for “human”, “ERS12561827” for “ERS12561752”; settings: 2 µM
Note: call rule not given here.

Structure (SMILES): Nc1nc(N)nc(-c2cc(Cl)ccc2Cl)n1.O=C(O)/C=C\C(=O)O [IRSOGLADINE MALEATE]
- Bacterial Biotransformation [1]: Compound NOT metabolized
- Bacterial Biotransformation [2]: Compound metabolized
- Bacterial Biotransformation [3]: Compound NOT metabolized
- Bacterial Biotransformation [4]: Compound NOT metabolized
- Bacterial Biotransformation [5]: Compound NOT metabolized
- Bacterial Biotransformation [6]: Compound NOT metabolized
- Bacterial Biotransformation [7]: Compound NOT metabolized
- Bacterial Biotransformation [8]: Compound NOT metabolized
- Bacterial Biotransformation [9]: Compound NOT metabolized
- Bacterial Biotransformation [10]: Compound NOT metabolized
- Bacterial Biotransformation [11]: Compound NOT metabolized
- Bacterial Biotransformation [12]: Compound NOT metabolized
- Bacterial Biotransformation [13]: Compound NOT metabolized
- Bacterial Biotransformation [14]: Compound NOT metabolized
- Bacterial Biotransformation [15]: Compound NOT metabolized
- Bacterial Biotransformation [16]: Compound NOT metabolized
- Bacterial Biotransformation [17]: Compound NOT metabolized
- Bacterial Biotransformation [18]: Compound metabolized
- Bacterial Biotransformation [19]: Compound NOT metabolized
- Bacterial Biotransformation [20]: Compound NOT metabolized

Structure (SMILES): CN1CCC(=C2c3ccccc3CC(=O)c3sccc32)CC1.O=C(O)/C=C/C(=O)O [KETOTIFEN FUMARATE]
- Bacterial Biotransformation [1]: Compound metabolized
- Bacterial Biotransformation [2]: Compound metabolized
- Bacterial Biotransformation [3]: Compound NOT metabolized
- Bacterial Biotransformation [4]: Compound NOT metabolized
- Bacterial Biotransformation [5]: Compound metabolized
- Bacterial Biotransformation [6]: Compound metabolized
- Bacterial Biotransformation [7]: Compound NOT metabolized
- Bacterial Biotransformation [8]: Compound metabolized
- Bacterial Biotransformation [9]: Compound NOT metabolized
- Bacterial Biotransformation [10]: Compound metabolized
- Bacterial Biotransformation [11]: Compound metabolized
- Bacterial Biotransformation [12]: Compound metabolized
- Bacterial Biotransformation [13]: Compound NOT metabolized
- Bacterial Biotransformation [14]: Compound NOT metabolized
- Bacterial Biotransformation [15]: Compound NOT metabolized
- Bacterial Biotransformation [16]: Compound NOT metabolized
- Bacterial Biotransformation [17]: Compound NOT metabolized
- Bacterial Biotransformation [18]: Compound NOT metabolized
- Bacterial Biotransformation [19]: Compound metabolized
- Bacterial Biotransformation [20]: Compound NOT metabolized

Structure (SMILES): CC[C@H](C)C(=O)O[C@H]1CCC=C2C=C[C@H](C)[C@H](CC[C@@H]3C[C@@H](O)CC(=O)O3)[C@H]21 [MEVASTATIN]
- Bacterial Biotransformation [1]: Compound NOT metabolized
- Bacterial Biotransformation [2]: Compound metabolized
- Bacterial Biotransformation [3]: Compound NOT metabolized
- Bacterial Biotransformation [4]: Compound metabolized
- Bacterial Biotransformation [5]: Compound NOT metabolized
- Bacterial Biotransformation [6]: Compound metabolized
- Bacterial Biotransformation [7]: Compound metabolized
- Bacterial Biotransformation [8]: Compound metabolized
- Bacterial Biotransformation [9]: Compound NOT metabolized
- Bacterial Biotransformation [10]: Compound metabolized
- Bacterial Biotransformation [11]: Compound NOT metabolized
- Bacterial Biotransformation [12]: Compound metabolized
- Bacterial Biotransformation [13]: Compound metabolized
- Bacterial Biotransformation [14]: Compound NOT metabolized
- Bacterial Biotransformation [15]: Compound metabolized
- Bacterial Biotransformation [16]: Compound NOT metabolized
- Bacterial Biotransformation [17]: Compound metabolized
- Bacterial Biotransformation [18]: Compound metabolized
- Bacterial Biotransformation [19]: Compound NOT metabolized
- Bacterial Biotransformation [20]: Compound metabolized

Structure (SMILES): COc1ccc2cc([C@H](C)C(=O)O)ccc2c1 [NAPROXEN]
- Bacterial Biotransformation [1]: Compound metabolized
- Bacterial Biotransformation [2]: Compound metabolized
- Bacterial Biotransformation [3]: Compound metabolized
- Bacterial Biotransformation [4]: Compound NOT metabolized
- Bacterial Biotransformation [5]: Compound NOT metabolized
- Bacterial Biotransformation [6]: Compound metabolized
- Bacterial Biotransformation [7]: Compound metabolized
- Bacterial Biotransformation [8]: Compound metabolized
- Bacterial Biotransformation [9]: Compound NOT metabolized
- Bacterial Biotransformation [10]: Compound metabolized
- Bacterial Biotransformation [11]: Compound metabolized
- Bacterial Biotransformation [12]: Compound metabolized
- Bacterial Biotransformation [13]: Compound metabolized
- Bacterial Biotransformation [14]: Compound NOT metabolized
- Bacterial Biotransformation [15]: Compound NOT metabolized
- Bacterial Biotransformation [16]: Compound NOT metabolized
- Bacterial Biotransformation [17]: Compound metabolized
- Bacterial Biotransformation [18]: Compound NOT metabolized
- Bacterial Biotransformation [19]: Compound metabolized
- Bacterial Biotransformation [20]: Compound NOT metabolized

Structure (SMILES): C#C[C@]1(OC(C)=O)CC[C@H]2[C@@H]3CCC4=C/C(=N/O)CC[C@@H]4[C@H]3CC[C@@]21CC [NORGESTIMATE]
- Bacterial Biotransformation [1]: Compound metabolized
- Bacterial Biotransformation [2]: Compound metabolized
- Bacterial Biotransformation [3]: Compound metabolized
- Bacterial Biotransformation [4]: Compound NOT metabolized
- Bacterial Biotransformation [5]: Compound metabolized
- Bacterial Biotransformation [6]: Compound metabolized
- Bacterial Biotransformation [7]: Compound metabolized
- Bacterial Biotransformation [8]: Compound metabolized
- Bacterial Biotransformation [9]: Compound NOT metabolized
- Bacterial Biotransformation [10]: Compound metabolized
- Bacterial Biotransformation [11]: Compound metabolized
- Bacterial Biotransformation [12]: Compound metabolized
- Bacterial Biotransformation [13]: Compound metabolized
- Bacterial Biotransformation [14]: Compound NOT metabolized
- Bacterial Biotransformation [15]: Compound NOT metabolized
- Bacterial Biotransformation [16]: Compound NOT metabolized
- Bacterial Biotransformation [17]: Compound NOT metabolized
- Bacterial Biotransformation [18]: Compound NOT metabolized
- Bacterial Biotransformation [19]: Compound metabolized
- Bacterial Biotransformation [20]: Compound NOT metabolized

Structure (SMILES): COc1ccnc(C[S+]([O-])c2nc3ccc(OC(F)F)cc3[nH]2)c1OC (stereo not given) [PANTOPRAZOLE]
- Bacterial Biotransformation [1]: Compound metabolized
- Bacterial Biotransformation [2]: Compound metabolized
- Bacterial Biotransformation [3]: Compound NOT metabolized
- Bacterial Biotransformation [4]: Compound metabolized
- Bacterial Biotransformation [5]: Compound metabolized
- Bacterial Biotransformation [6]: Compound metabolized
- Bacterial Biotransformation [7]: Compound metabolized
- Bacterial Biotransformation [8]: Compound metabolized
- Bacterial Biotransformation [9]: Compound NOT metabolized
- Bacterial Biotransformation [10]: Compound metabolized
- Bacterial Biotransformation [11]: Compound metabolized
- Bacterial Biotransformation [12]: Compound metabolized
- Bacterial Biotransformation [13]: Compound metabolized
- Bacterial Biotransformation [14]: Compound NOT metabolized
- Bacterial Biotransformation [15]: Compound metabolized
- Bacterial Biotransformation [16]: Compound NOT metabolized
- Bacterial Biotransformation [17]: Compound metabolized
- Bacterial Biotransformation [18]: Compound metabolized
- Bacterial Biotransformation [19]: Compound metabolized
- Bacterial Biotransformation [20]: Compound metabolized

Structure (SMILES): CN(CCOc1ccc(CC2SC(=O)NC2=O)cc1)c1ccccn1.O=C(O)/C=C\C(=O)O (stereo not given) [ROSIGLITAZONE MALEATE]
- Bacterial Biotransformation [1]: Compound metabolized
- Bacterial Biotransformation [2]: Compound NOT metabolized
- Bacterial Biotransformation [3]: Compound NOT metabolized
- Bacterial Biotransformation [4]: Compound NOT metabolized
- Bacterial Biotransformation [5]: Compound NOT metabolized
- Bacterial Biotransformation [6]: Compound metabolized
- Bacterial Biotransformation [7]: Compound NOT metabolized
- Bacterial Biotransformation [8]: Compound metabolized
- Bacterial Biotransformation [9]: Compound NOT metabolized
- Bacterial Biotransformation [10]: Compound metabolized
- Bacterial Biotransformation [11]: Compound metabolized
- Bacterial Biotransformation [12]: Compound NOT metabolized
- Bacterial Biotransformation [13]: Compound metabolized
- Bacterial Biotransformation [14]: Compound NOT metabolized
- Bacterial Biotransformation [15]: Compound NOT metabolized
- Bacterial Biotransformation [16]: Compound NOT metabolized
- Bacterial Biotransformation [17]: Compound NOT metabolized
- Bacterial Biotransformation [18]: Compound metabolized
- Bacterial Biotransformation [19]: Compound metabolized
- Bacterial Biotransformation [20]: Compound NOT metabolized
